# Measurements as given in article PMC11321563, “Enolase inhibitors as therapeutic leads for Naegleria fowleri infection” (PLOS Pathogens, 2024).
# Entries after “also recorded” stand apart in the source; their conditions may differ. Read-outs that look alike come from different tables or passages of the source.
# Legend:
# [1] = biological target: N. fowleri ENO (NfENO) (Naegleria fowleri, UniProt A0A6A5BXC3); assay: NfENO coupled enzyme activity/inhibition assay (PK/LDH, NADH fluorescence); format: biochemical
# Method: (§1) ENO was assayed in triplicate using a coupled reaction to measure enzyme activity. Briefly, enzyme (50 nM) in assay buffer (100 mM HEPES, pH 8.0, 3.3 mM MgSO4) was loaded in black 96-well plates with or without inhibitors. To start the reaction, substrate buffer (3.75 mM 2-PG, 1.75 mM ADP, 1 U of pyruvate kinase/lactate dehydrogenase, and 0.4 mM NADH in assay buffer) was added to each well. The rate of reduction in fluorescence (excitation: 360 nm; emission: 460 nm), a measure of NAD production, was then scored on a Biotek Synergy H1 microplate reader every 20 seconds for 4 minutes. Kinetic analyses were performed with Prism 9.0 (GraphPad Software, San Diego, CA) using the Michaelis-Menten model. For assays involving inhibitors, compounds (in DMSO) were incubated at RT with enzyme in assay buffer […] for 15 minutes prior to initiation of the reaction by addition of the substrate. All assays were performed in triplicate with vehicle control (DMSO) included.
# [2] = biological target: human ENO2 (gamma-enolase, HsENO2) (Homo sapiens, UniProt P09104); assay: Human ENO2 coupled enzyme inhibition assay; format: biochemical
# Method: as §1
# [3] = system: N. fowleri strain Nf69 (ATCC 30215) trophozoites; assay: N. fowleri trophozoite viability, CellTiter-Glo, 48 hr; format: cell-based, Naegleria fowleri; conditions: for EC50: Naegleria fowleri
# Method: N. fowleri strain Nf69 (ATCC 30215) or strain TY (ATCC 30107) trophozoites and N. gruberi strain NEG-M (ATCC 30224) were cultured axenically as previously described. Briefly, parasites were seeded at 1 x 10^4 cells/mL (N. fowleri) or 5 x 10^3 cells/mL (N. gruberi) in 100 μL of the indicated medium in white TC-treated 96-well plates (Thermo Scientific Nunc Microwell 136101). For assays under standard growth conditions ("+ glc"), N. fowleri cells were seeded into Nelson’s Complete Media (NCM, 0.17% liver infusion broth (BD Difco, Franklin Lakes, NJ), 0.17% glucose, 0.012% sodium chloride, 0.0136% potassium phosphate monobasic, 0.0142% sodium phosphate dibasic, 0.0004% calcium chloride, 0.0002% magnesium sulfate, 10% heat-inactivated fetal bovine serum (FBS), 1% penicillin-streptomycin) at 37°C. For assays in modified medium ("-glc/+gly"), cells were seeded into the media without glucose but supplemented with 10 mM glycerol. For standard growth of N. gruberi, cells were seeded into PYNFH-complete media (1.0% peptone, 1.0% yeast extract, 0.1% yeast nucleic acid, 0.0015% folic acid, 0.0001% hemin, 0.0362% potassium phosphate monobasic, 0.05% disodium phosphate, 10% heat-inactivated fetal bovine serum (FBS), 1% penicillin-streptomycin) at 25°C. For determination of EC50 value, concentrations of drug ranging from 0.07826–5 μM were used. After culturing for 48 hr (37°C, 5% CO2 for N. fowleri, 25°C, 5% CO2 for N. gruberi) in the presence of compound or vehicle, plates were equilibrated to RT for 15 min and CellTiter Glo reagent (Promega, Madison, WI, USA) was added followed by orbital shaking for 2 min. After an additional incubation (RT, 10 min), luminescence was scored on a BioTek Synergy H1 mircoplate reader. Parasite density was scored and kinetic analyses were performed with Prism 9.0 (GraphPad Software, San Diego, CA) using the Michaelis-Menten model. All viability assays were performed in technical triplicates with at least three biological replicates.
# [4] = HEK-293 cytotoxicity, CellTiter Blue, 48 hr; format: cell-based; conditions: human, HEK-293 cells (ATCC CRL-1573); HEK-293, 48 hr; no superscript in Fig 1; read-out: Human cell line CC50
# Method: HEK-293 (ATCC CRL-1573) cells were cultured axenically in Dulbecco’s Modified Eagle Medium with 4.5g/L D-glucose, L-glutamine (Gibco 11965) and 10% fetal bovine serum (FBS) at 37°C, 5% CO2. […] After a 48 hr incubation (37°C, 5% CO2), CellTiter Blue reagent (Promega, Madison, WI, USA) was added to each well. After an additional 3-hour incubation (37°C, 5% CO2) with reagent, fluorescence was scored on a a BioTek Synergy H1 mircoplate reader and percent growth inhibition values were solved.
# [5] = system: N. gruberi; assay: N. gruberi growth; format: cell-based, Naegleria gruberi
# Method: N. fowleri strain Nf69 (ATCC 30215) or strain TY (ATCC 30107) trophozoites and N. gruberi strain NEG-M (ATCC 30224) were cultured axenically as previously described. Briefly, parasites were seeded at 1 x 10^4 cells/mL (N. fowleri) or 5 x 10^3 cells/mL (N. gruberi) in 100 μL of the indicated medium in white TC-treated 96-well plates (Thermo Scientific Nunc Microwell 136101). For assays under standard growth conditions ("+ glc"), N. fowleri cells were seeded into Nelson’s Complete Media (NCM, 0.17% liver infusion broth (BD Difco, Franklin Lakes, NJ), 0.17% glucose, 0.012% sodium chloride, 0.0136% potassium phosphate monobasic, 0.0142% sodium phosphate dibasic, 0.0004% calcium chloride, 0.0002% magnesium sulfate, 10% heat-inactivated fetal bovine serum (FBS), 1% penicillin-streptomycin) at 37°C. For assays in modified medium ("-glc/+gly"), cells were seeded into the media without glucose but supplemented with 10 mM glycerol. […] After an additional incubation (RT, 10 min), luminescence was scored on a BioTek Synergy H1 mircoplate reader. Parasite density was scored and kinetic analyses were performed with Prism 9.0 (GraphPad Software, San Diego, CA) using the Michaelis-Menten model. […]
# [6] = system: Balamuthia mandrillaris; assay: Balamuthia mandrillaris growth; format: cell-based
# [7] = system: Entamoeba histolytica; assay: Entamoeba histolytica growth; format: cell-based
# [8] = system: N. fowleri trophozoites; assay: Unbiased metabolomics of amoebae after HEX treatment (2DLC-MS); format: cell-based, Naegleria fowleri; conditions: cells grown in glycerol, HEX-treated vs untreated
# Method: For unbiased metabolomics analyses, N. fowleri trophozoites were grown to near 100% confluency in 6-well TC-treated plates (Thermo Scientific Nunclon Delta Surface 140685). […] Samples were then washed three times in RT PBS prior to the addition of ice-cold CH3CN. Plates were then incubated at –20°C for 20 min, followed by the addition of ice-cold nanopure H2O and removal of the solution to sterile microcentrifuge tubes. This process was repeated twice, and the total volume of extraction material was adjusted to 2.5 x 10^6 cell equivalents per sample. Tubes were stored at –80°C prior to analysis.
# Each cell sample was vortexed with glass beads for 5 min in a MM200 Mix Grinder (Retsch USA, Newtown, PA, USA). The mixture was centrifuged at 14,000 rpm for 20 min at 4°C. The supernatant was transferred into a new tube and lyophilized overnight. The dried sample was reconstituted in 60 μL 50% CH3CN and analyzed in random order on a parallel two-dimensional liquid chromatography-mass spectrometry (2DLC-MS) system, a Thermo DIONEX UltiMate 3000 HPLC system (Thermo Fisher Scientific, Waltham, MA, USA) coupled with a Thermo Q Exactive HF Hybrid Quadrupole-Orbitrap Mass Spectrometer (Thermo Fisher Scientific, Waltham, MA, USA). […] Each sample was analyzed by the 2DLC-MS under both positive (+) and negative (–) modes to obtain full MS data for metabolite quantification. […]
# [9] = system: N. fowleri strain 69 trophozoites; assay: Rat model of N. fowleri infection, nasal instillation treatment; format: in vivo, Naegleria fowleri
# Description: Twenty-four CD rats (12 females, 12 males, aged 42–48 days, Charles River) housed in pairs were infected by nasal instillation with 2.5 x 10^5 N. fowleri strain 69 trophozoites that had been isolated after passage through mice to ensure virulence. Rats were provided unlimited food and water throughout the duration of the experiment. The two groups consisted of equal numbers of males and females. […] Rodents were monitored carefully and euthanized when symptoms of infection, including failure to respond to stimuli or seizures, were evident. After 17 days, surviving animals were sacrificed and brains were removed to assess cure.
# [10] = Intranasal dose-finding tolerability in uninfected CD rats; format: in vivo, rat; conditions: 1.6, 16, or 120 mg/kg HEX in PBS once daily for five days
# [11] = system: N. fowleri strain Nf69 (ATCC 30215) trophozoites; assay: N. fowleri trophozoite viability, CellTiter-Glo, 48 hr; format: cell-based; conditions: Naegleria fowleri, ATCC30215, read-out: EC50 after short exposure
# [12] = system: ENO1-rescued glioma and other control cells; set-up: method as in PMID 33230295; conditions: cited from earlier work
# [13] = system: intracranial orthotopic ENO1-deficient tumors; set-up: method as in PMID 33230295; conditions: cited from earlier work
# [14] = set-up: method as in PMID 33230295; conditions: non-human primates, cited from earlier work
# [15] = set-up: method as in PMID 33230295; conditions: rats; cited from earlier work
# [16] = system: Human cell line; conditions: read-out: Human cell line CC50, cited from earlier work
# [17] = system: ENO1-/- glioma cells; conditions: read-out: EC50 against ENO1-/- glioma cells; cited from earlier work
# [18] = recombinant NfENO, 50 nM enzyme, 15 min preincubation with compound, read-out: NfENO IC50
# [19] = 15 min preincubation with compound, read-out: HsENO2 IC50
# [20] = ATCC30215, 48 h, read-out: N. fowleri EC50
# [21] = value with superscript 3 in Fig 1, footnote not given, ref superscript 3
# Sequence of human ENO2 (gamma-enolase, HsENO2) (P09104 whole entry): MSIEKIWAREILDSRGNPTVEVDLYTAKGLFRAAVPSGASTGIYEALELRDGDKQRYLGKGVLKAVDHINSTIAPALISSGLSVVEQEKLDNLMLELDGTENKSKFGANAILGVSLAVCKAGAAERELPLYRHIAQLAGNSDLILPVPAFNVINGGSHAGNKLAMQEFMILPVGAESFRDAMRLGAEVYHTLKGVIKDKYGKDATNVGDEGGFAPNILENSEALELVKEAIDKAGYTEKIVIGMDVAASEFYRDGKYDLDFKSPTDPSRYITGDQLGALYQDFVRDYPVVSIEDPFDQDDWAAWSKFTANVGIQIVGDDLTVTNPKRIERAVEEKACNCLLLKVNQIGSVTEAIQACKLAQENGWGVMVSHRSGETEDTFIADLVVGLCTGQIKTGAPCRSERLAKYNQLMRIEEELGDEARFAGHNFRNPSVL
# Sequence of N. fowleri ENO (NfENO) (A0A6A5BXC3 entry or part of it): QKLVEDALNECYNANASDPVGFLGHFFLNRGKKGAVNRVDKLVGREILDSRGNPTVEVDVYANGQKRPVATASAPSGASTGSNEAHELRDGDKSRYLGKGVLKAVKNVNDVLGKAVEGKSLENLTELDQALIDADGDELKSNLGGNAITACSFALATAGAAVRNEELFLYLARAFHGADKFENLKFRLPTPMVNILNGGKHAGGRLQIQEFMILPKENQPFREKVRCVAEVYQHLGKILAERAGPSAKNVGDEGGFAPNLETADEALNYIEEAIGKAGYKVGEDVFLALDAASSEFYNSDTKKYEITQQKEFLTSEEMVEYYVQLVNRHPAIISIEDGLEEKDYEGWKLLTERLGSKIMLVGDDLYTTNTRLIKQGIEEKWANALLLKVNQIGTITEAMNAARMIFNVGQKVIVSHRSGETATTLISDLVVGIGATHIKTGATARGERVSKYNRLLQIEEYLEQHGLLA
smiles,measurement,setting,value
"O=C(O)[C@@H](CO)OP(=O)(O)O [2-PG, 2-phosphoglycerate]",Km,"[1]; truncation residues 44–512, NafoA.00379.a.B5.PW38978, read-out: apparent KM for 2-PG",923 ± 0.336 µM
O=C1C(P(=O)(O)O)CCN1OCc1ccccc1 (centres unmarked) [Benzyl- deoxy- SF2312],IC50,[1]; [18],> 10000 nM
same,IC50,[2]; [19],> 10000 nM
same,EC50,[3]; [20],> 10000 nM
O=C1C(P(=O)(O)O)CCCCN1OCc1ccccc1 (centres unmarked) [Benzyl-HEPTA],IC50,[1]; [18],> 10000 nM
same,IC50,[2]; [19],> 10000 nM
same,EC50,[3]; [20],> 10000 nM
O=C1C(P(=O)(O)O)CCCN1OCc1ccccc1 (centres unmarked) [BenzylHEX],impact on NfENO,[1]; at 10 μM,no impact
same,IC50,[1]; [18],> 10000 nM
same,IC50,[2]; [19],> 10000 nM
same,EC50,[3]; [20],> 10000 nM
CC(C)OC(=O)[C@H](C)NP(=O)(OCOC(=O)C(C)(C)C)C1CCCN(O)C1=O (some centres unmarked) [CDP25],IC50,[1],> 10000 nM
same,EC50,[3]; [20],310 ± 150 nM
same,CC50 at 48 h,[4],> 5000 nM
"O=C1C(P(=O)(O)O)CCN1O (centres unmarked) [Deoxy-SF2312, (1-hydroxy-2-oxopyrrolidin-3-yl) phosphonic acid]",IC50,[1],1200 ± 470 nM
same,IC50,[2],100 ± 40 nM
same,fold more potent against ENO2 than NfENO,[2]; ratio of IC50 values,more than 10 fold
same,EC50,[3]; [20],950 ± 200 nM
same,CC50 at 48 h,[4],> 200000 nM
"O=C1C(P(=O)(O)O)CCCCN1O (centres unmarked) [HEPTA, (1-hydroxy-2-oxoazepan-3-yl) phosphonic acid]",IC50,[1],4700 ± 1400 nM
same,IC50,[2],5800 ± 880 nM
same,EC50,[3]; [20],> 10000 nM
"O=C1C(P(=O)(O)O)CCCN1O (centres unmarked) [HEX, (1-hydroxy-2-oxopiperidin-3-yl) phosphonic acid]",IC50,[1],140 ± 40 nM
same,mode of NfENO inhibition,[1],competitive inhibitor
same,IC50,[2],360 ± 40 nM
same,EC50,[3]; [20],210 ± 20 nM
same,EC50,"[3]; ATCC30215, 336 h, read-out: EC50 of trophozoites cultured from brain of HEX-treated rodent",90 ± 40 nM
same,EC50,"[3]; ATCC30215, 336 h, read-out: EC50 of trophozoites cultured from brain of PBS-treated (Vehicle) rodent",100 ± 80 nM
same,EC50,"[3]; ATCC30215, 504 h, read-out: EC50 after removal of selection",110 ± 10 nM
same,EC50,"[3]; ATCC30215, read-out: EC50 in glycerol medium",2500 ± 110 nM
same,EC50,"[3]; ATCC30215, read-out: EC50 of HEX-adapted amoebae",570 ± 300 nM
same,impact on growth,[5],no impact
same,impact on growth,[6],no impact; also recorded: inactive
same,impact on growth,[7],no impact
same,decrease in pyruvate levels,[8],~50%
same,median survival time,"[9]; HEX 3 mg/kg nasal instillation for 10 days, >50% of the population survived",indeterminable; also recorded: undefined
same,animals remaining at conclusion of treatment,"[9]; day 11, HEX 3 mg/kg nasal instillation once a day for 10 days from day 2",11 of 12
same,survivors with brains positive for amoebae by culture,[9]; of the eight HEX-treated survivors,six of the eight and six
same,adverse effects of intranasal instillation,[10],none of the rats had any noticeable reaction to treatment
same,EC50,[11],8060 ± 2600 nM
same,CC50,[12],> 300000 nM
same,intracranial tumor growth,[13],almost completely inhibited intracranial tumor growth
same,plasma concentrations,"[14]; IP 300 mg/kg, for several hours",about 750 μM
same,IP dose tolerated without adverse effects,[14]; IP,300 mg/kg
same,plasma elimination half-life,[15],about 60 minutes
same,CC50,[16]; [21],> 300000 nM
same,EC50,[17],1300 nM
CC(C)(C)C(=O)OCOP(=O)(OCOC(=O)C(C)(C)C)C1CCCN(O)C1=O (centres unmarked) [POMHEX],IC50,[1]; [18],> 10000 nM
same,IC50,[2]; [19],> 10000 nM
same,EC50,[3]; [20],700 ± 100 nM
same,CC50,[16]; [21],> 4900 nM
CC(C)(C)C(=O)OCOP(=O)(OCOC(=O)C(C)(C)C)C1CC(O)N(O)C1=O (centres unmarked) [POMSF],IC50,[1]; [18],> 10000 nM
same,IC50,[2]; [19],> 10000 nM
same,increase in amoebicidal potency relative to SF2312,[3]; EC50 ratio,about 2.4 fold
same,EC50,[3]; [20],660 ± 90 nM
"O=C1C(P(=O)(O)O)CC(O)N1O (centres unmarked) [SF2312, (1,5-dihydroxy-2-oxopyrrolidin-3-yl) phosphonic acid, reference compound]",IC50,[1],310 ± 70 nM
same,IC50,[2],630 ± 10 nM
same,EC50,[3]; [20],1600 ± 110 nM
same,CC50,"[16]; value with superscript 1 in Fig 1, footnote not given, ref superscript 1",> 200000 nM
